Patent US9499534B2, “Thiazole-substituted aminopyrimidines as spleen tyrosine kinase inhibitors” (priority 2013, dated 2016)
pIC50: −log10 of the molar value.

Key:
PGD2 = settings: dosed intranasally, phase I/II study, allergic rhinitis; cited from earlier work
[1] = phase II clinical trial for allergic rhinitis; cited from earlier work
[2] = target: recombinant human GST-SYK (Homo sapiens (Human), UniProt P43405); test: Homogeneous Time-Resolved Fluorescence (HTRF) Assay for the Recombinant Human Syk Enzyme; type: biochemical; settings: GST-SYK 5 pM, ATP 25 μM, biotinylated substrate peptide 250 nM, HTRF signal
Experimental: Homogeneous Time-Resolved Fluorescence (HTRF) Assay for the Recombinant Human Syk Enzyme
A recombinant GST-hSYK fusion protein was used to measure potency of compounds to inhibit human Syk activity. The recombinant human GST-SYK (Carna Biosciences #08-176) (5 pM final concentration) was incubated with various concentrations of the inhibitor diluted in DMSO (0.1% final concentration) for 10 minutes at room temperature in 15 mM Tris-HCl (pH 7.5), 0.01% tween 20, 2 mM DTT in 384 well plate format. To initiate the reaction the biotinylated substrate peptide (250 nM final concentration) that contains the phosphorylation site for Syk was added with magnesium (5 mM final concentration) and ATP (25 μM final concentration). Final volume of the reaction was 10 μL. Phosphorylation of the peptide was allowed to proceed for 45′ at room temperature. To quench the reaction and detect the phosphorylated product, 2 nM of a Europium-anti-phosphotyrosine antibody (Perkin Elmer #AD0161) and 70 nM SA-APC (Perkin-Elmer #CR130-100) were added together in 15 mM Tris pH 7.5, 40 mM EDTA, 0.01% tween 20. Final volume of the quenching solution was 10 μL.
The resulting HTRF signal was measured after 30 minutes on an EnVision (Perkin-Elmer) reader using a time-resolved fluorescence protocol. Table A below lists activities as IC50 values (nM) for representative compounds of the invention.

With `Oc1cccc(Nc2ncc(F)c(Nc3cccc(O)c3)n2)c1` [Example R112] as the compound, how does the clinical safety (PGD2) read?
Its clinical safety is “safe across a range of indicators”.

And the “decrease in PGD2” value (PGD2)?
The value was “statistically significant decrease”.

And the efficacy versus placebo [1]?
Its efficacy versus placebo is “lack of efficacy versus placebo”.

With `CC1(C)C[C@](O)(c2ncc(-c3cc(Nc4nccc(C(F)(F)F)n4)cc(-c4cnn(C(C)(C)C)c4)c3)s2)CC[C@H]1C(=O)O` (single isomer, unassigned) [Example 2.2, (1R,4S or 1S,4R)-4-{5-[3-(1-tert-butyl-1H-pyrazol-4-yl)-5-{[4-(trifluoromethyl)pyrimidin-2-yl]amino}phenyl]-1,3-thiazol-2-yl}-4-hydroxy-2,2-dimethylcyclohexanecarboxylic acid] as the compound, how does the pIC50 [2] read?
Its pIC50 is 6.54.
